Blank lines part the entries; values can stand above or below the compound they belong to.
Assay: Assay (%) test of APIs in cream, stability study, HPLC method
Assay type: physicochemical
Experimental: The stability of the product is confirmed by the stability studies performed for 3/6 months as per ICH guidelines.
APIs-stability experiments were carried out (see tables 3-20) using several products that are representative of the present invention. Tests were carried out to observe (or measure as appropriate) the physical appearance of the product, the pH value and assay of the APIs over a period of time. […] Betamethasone Valerate—0.12% (w/w) • ii. Fluticasone Propionate—0.05% (w/w) • iii. Mometasone Furoate—0.1% (w/w) • iv. Dexamethasone Acetate—0.1% (w/w) • v. Hydrocortisone Acetate—1.0% (w/w) • vi. Clobetasol Propionate—0.05% (w/w) • vii. Beclomethasone Dipropionate—0.025% (w/w) • viii. Betamethasone Dipropionate—0.05% (w/w) wherein all percentages are with respect to the final formulation.
The product used for the Stability Studies tests contained approximately 10% extra APIs (overages).

Structure (SMILES): CCC(=O)O[C@]1(C(=O)SCF)[C@H](C)C[C@H]2[C@@H]3C[C@H](F)C4=CC(=O)C=C[C@]4(C)[C@@]3(F)[C@@H](O)C[C@@]21C [Fluticasone Propionate]
Assay (%) (in cream Batch No. SFC-01, 25° C. 60% RH, 1st Month): 108.54%
Assay (%) (in cream Batch No. SFC-01, 25° C. 60% RH, 2nd Month): 108.42%
Assay (%) (in cream Batch No. SFC-01, 25° C. 60% RH, 3rd Month): 108.21%
Assay (%) (in cream Batch No. SFC-01, 25° C. 60% RH, 6th Month): 108.10%
Assay (%) (in cream Batch No. SFC-01, 30° C. 65% RH, 1st Month): 108.48%
Assay (%) (in cream Batch No. SFC-01, 30° C. 65% RH, 2nd Month): 108.42%
Assay (%) (in cream Batch No. SFC-01, 30° C. 65% RH, 3rd Month): 108.20%
Assay (%) (in cream Batch No. SFC-01, 30° C. 65% RH, 6th Month): 108.11%
Assay (%) (in cream Batch No. SFC-01, 40° C. 75% RH, 1st Month): 108.51%
Assay (%) (in cream Batch No. SFC-01, 40° C. 75% RH, 2nd Month): 108.32%
Assay (%) (in cream Batch No. SFC-01, 40° C. 75% RH, 3rd Month): 108.11%
Assay (%) (in cream Batch No. SFC-01, 40° C. 75% RH, 6th Month): 108.08%
Assay (%) (in cream Batch No. SFC-01, Freezthaw, 1st Month): 108.15%
Assay (%) (in cream Batch No. SFC-01, Initial): 108.56%
Assay (%) (in cream Batch No. SFC-01, Temperature cycling, 1st Month): 108.51%

Structure (SMILES): CCCCC(=O)O[C@]1(C(=O)CO)[C@@H](C)C[C@H]2[C@@H]3CCC4=CC(=O)C=C[C@]4(C)[C@@]3(F)[C@@H](O)C[C@@]21C [Betamethasone Valerate]
Assay (%) (in cream Batch No. SBV-01, 25° C. 60% RH, 1st Month): 109.54%
Assay (%) (in cream Batch No. SBV-01, 25° C. 60% RH, 2nd Month): 109.42%
Assay (%) (in cream Batch No. SBV-01, 25° C. 60% RH, 3rd Month): 109.21%
Assay (%) (in cream Batch No. SBV-01, 30° C. 65% RH, 1st Month): 109.48%
Assay (%) (in cream Batch No. SBV-01, 30° C. 65% RH, 2nd Month): 109.42%
Assay (%) (in cream Batch No. SBV-01, 30° C. 65% RH, 3rd Month): 109.20%
Assay (%) (in cream Batch No. SBV-01, 40° C. 75% RH, 1st Month): 109.51%
Assay (%) (in cream Batch No. SBV-01, 40° C. 75% RH, 2nd Month): 109.32%
Assay (%) (in cream Batch No. SBV-01, 40° C. 75% RH, 3rd Month): 109.11%
Assay (%) (in cream Batch No. SBV-01, Freezthaw, 1st Month): 108.25%
Assay (%) (in cream Batch No. SBV-01, Initial): 109.56%
Assay (%) (in cream Batch No. SBV-01, Temperature cycling, 1st Month): 109.51%

Structure (SMILES): C[C@@H]1C[C@H]2[C@@H]3CCC4=CC(=O)C=C[C@]4(C)[C@@]3(Cl)[C@@H](O)C[C@]2(C)[C@@]1(OC(=O)c1ccco1)C(=O)CCl [Mometasone Furoate]
Assay (%) (in cream Batch No. SFM-01, 25° C. 60% RH, 1st Month): 108.54%
Assay (%) (in cream Batch No. SFM-01, 25° C. 60% RH, 2nd Month): 108.42%
Assay (%) (in cream Batch No. SFM-01, 25° C. 60% RH, 3rd Month): 108.21%
Assay (%) (in cream Batch No. SFM-01, 25° C. 60% RH, 6th Month): 107.82%
Assay (%) (in cream Batch No. SFM-01, 30° C. 65% RH, 1st Month): 108.48%
Assay (%) (in cream Batch No. SFM-01, 30° C. 65% RH, 2nd Month): 108.42%
Assay (%) (in cream Batch No. SFM-01, 30° C. 65% RH, 3rd Month): 108.20%
Assay (%) (in cream Batch No. SFM-01, 30° C. 65% RH, 6th Month): 107.75%
Assay (%) (in cream Batch No. SFM-01, 40° C. 75% RH, 1st Month): 108.51%
Assay (%) (in cream Batch No. SFM-01, 40° C. 75% RH, 2nd Month): 108.32%
Assay (%) (in cream Batch No. SFM-01, 40° C. 75% RH, 3rd Month): 108.11%
Assay (%) (in cream Batch No. SFM-01, 40° C. 75% RH, 6th Month): 107.88%
Assay (%) (in cream Batch No. SFM-01, Freezthaw, 1st Month): 108.15%
Assay (%) (in cream Batch No. SFM-01, Initial): 108.56%
Assay (%) (in cream Batch No. SFM-01, Temperature cycling, 1st Month): 108.51%

Now from value to compound:

Assay (%) (in cream Batch No. SFB-01, 25° C. 60% RH, 1st Month): 108.05%
Assay (%) (in cream Batch No. SFB-01, 25° C. 60% RH, 2nd Month): 108.00%
Assay (%) (in cream Batch No. SFB-01, 25° C. 60% RH, 3rd Month): 107.90%
Assay (%) (in cream Batch No. SFB-01, 30° C. 65% RH, 1st Month): 108.11%
Assay (%) (in cream Batch No. SFB-01, 30° C. 65% RH, 2nd Month): 107.96%
Assay (%) (in cream Batch No. SFB-01, 30° C. 65% RH, 3rd Month): 107.68%
Assay (%) (in cream Batch No. SFB-01, 40° C. 75% RH, 1st Month): 108.04%
Assay (%) (in cream Batch No. SFB-01, 40° C. 75% RH, 2nd Month): 107.98%
Assay (%) (in cream Batch No. SFB-01, 40° C. 75% RH, 3rd Month): 107.88%
Assay (%) (in cream Batch No. SFB-01, Freezthaw, 1st Month): 107.58%
Assay (%) (in cream Batch No. SFB-01, Initial): 108.12%
Assay (%) (in cream Batch No. SFB-01, Temperature cycling, 1st Month): 107.68%
Structure (SMILES): CCC(=O)OCC(=O)[C@@]1(OC(=O)CC)[C@@H](C)C[C@H]2[C@@H]3CCC4=CC(=O)C=C[C@]4(C)[C@@]3(Cl)[C@@H](O)C[C@@]21C [Beclomethasone dipropionate]

Assay (%) (in cream Batch No. HAS-01, 25° C. 60% RH, 1st Month): 107.14%
Assay (%) (in cream Batch No. HAS-01, 25° C. 60% RH, 2nd Month): 107.11%
Assay (%) (in cream Batch No. HAS-01, 25° C. 60% RH, 3rd Month): 107.10%
Assay (%) (in cream Batch No. HAS-01, 30° C. 65% RH, 1st Month): 107.14%
Assay (%) (in cream Batch No. HAS-01, 30° C. 65% RH, 2nd Month): 107.12%
Assay (%) (in cream Batch No. HAS-01, 30° C. 65% RH, 3rd Month): 107.09%
Assay (%) (in cream Batch No. HAS-01, 40° C. 75% RH, 1st Month): 107.14%
Assay (%) (in cream Batch No. HAS-01, 40° C. 75% RH, 2nd Month): 107.12%
Assay (%) (in cream Batch No. HAS-01, 40° C. 75% RH, 3rd Month): 107.05%
Assay (%) (in cream Batch No. HAS-01, Freezthaw, 1st Month): 107.14%
Assay (%) (in cream Batch No. HAS-01, Initial): 107.15%
Assay (%) (in cream Batch No. HAS-01, Temperature cycling, 1st Month): 107.11%
Structure (SMILES): CC(=O)OCC(=O)[C@@]1(O)CC[C@H]2[C@@H]3CCC4=CC(=O)CC[C@]4(C)[C@H]3[C@@H](O)C[C@@]21C [Hydrocortisone Acetate]

Assay (%) (in cream Batch No. SPC-01, 25° C. 60% RH, 1st Month): 107.40%
Assay (%) (in cream Batch No. SPC-01, 25° C. 60% RH, 2nd Month): 107.34%
Assay (%) (in cream Batch No. SPC-01, 25° C. 60% RH, 3rd Month): 107.30%
Assay (%) (in cream Batch No. SPC-01, 25° C. 60% RH, 6th Month): 107.24%
Assay (%) (in cream Batch No. SPC-01, 30° C. 65% RH, 1st Month): 107.38%
Assay (%) (in cream Batch No. SPC-01, 30° C. 65% RH, 2nd Month): 107.32%
Assay (%) (in cream Batch No. SPC-01, 30° C. 65% RH, 3rd Month): 107.29%
Assay (%) (in cream Batch No. SPC-01, 30° C. 65% RH, 6th Month): 107.22%
Assay (%) (in cream Batch No. SPC-01, 40° C. 75% RH, 1st Month): 107.34%
Assay (%) (in cream Batch No. SPC-01, 40° C. 75% RH, 2nd Month): 107.22%
Assay (%) (in cream Batch No. SPC-01, 40° C. 75% RH, 3rd Month): 107.15%
Assay (%) (in cream Batch No. SPC-01, 40° C. 75% RH, 6th Month): 107.10%
Assay (%) (in cream Batch No. SPC-01, Freezthaw, 1st Month): 107.11%
Assay (%) (in cream Batch No. SPC-01, Initial): 107.41%
Assay (%) (in cream Batch No. SPC-01, Temperature cycling, 1st Month): 107.21%
Structure (SMILES): CCC(=O)O[C@]1(C(=O)CCl)[C@@H](C)C[C@H]2[C@@H]3CCC4=CC(=O)C=C[C@]4(C)[C@@]3(F)[C@@H](O)C[C@@]21C [Clobetasol Propionate]
